Consider one molecule from patent US20250032651A1, “[177LU] LUTETIUM-PSMA I&T COMPOSITION AND DOSIMETRY, KIT, METHOD OF MAKING, AND METHOD OF USING THEREOF” (Curium US LLC, priority 2022, published 2025).

This series in a line: Biodistribution: SPECT/CT time-activity curves (fraction of injected activity), whole-body half-lives. Type of series: in vivo, human. The following applies: Cycle 1. Here is the method:
This Example presents the biodistribution, dosimetry, and pharmacokinetics (PK) results of a PK/Dosimetry sub-study performed as part of a Phase III trial. Twenty-seven (27) patients were administered a target activity of 7.4±10% GBq of ^177Lu-PSMA-I&T and underwent single photon emission computed tomography (SPECT)/computed tomography (CT) imaging at four timepoints (4 h, 24 h, 48 h, and 168 h). Image data was analysed to compute time-activity curves (TACs) and subsequently time-integrated activity coefficients (TIACs) in each organ of interest and in organs showing appreciable and meaningful ^177Lu-PSMA-I&T activity. Organ Level Internal Dose Assessment (OLINDA 2.2.3) was used to compute organ and whole body absorbed radiation doses for each patient.
All participating sites underwent a rigorous site setup process during which all dose calibrators, scanners, and gamma counters used in the sub-study were calibrated. Sites were allowed to enroll patients in the sub-study only after the completion and approval of all site setup processes by Invicro. Patients underwent SPECT/CT imaging, with anatomical coverage typically extending from the salivary glands to the pelvis, following the administration of a targeted 7.4±10% GBq of ^177Lu-PSMA-I&T at cycle 1. SPECT/CT imaging was performed at four timepoints: 4 h, 24 h, 48 h, and 168 h post-injection. Additionally, a subset of patients imaged at Cycle 1 (16 out of 27), were also imaged at Cycle 3 (Table 2).
Volume of interest (VOI) (kidneys, bladder, liver, lumbar vertebrae L2-L4, lacrimal glands, salivary glands [parotid and submandibular glands], and whole body) were delineated on each dataset by a trained image analyst. […] Organs were segmented either by drawing the entire contour of the organ, or by placing a sphere in a representative region of the organ and then multiplying by the organ's effective mass (based on patient's height and weight). Segmentation methods for each organ are specified in Table 3 and were consistently applied to each patient.
Clearance of the radiopharmaceutical was derived from a data-appropriate fit of each organ's TAC. Depending on the TAC's shape, the data was fitted with the sum of one, two, or three exponentials, or using a rise and fall model. Fitting was performed with in-house Python software. TIACs were calculated through analytical integration of the curve fit extrapolated to infinity. […] A whole-body TAC was derived from delineating the imaged body. The remainder activity was determined by subtracting the cumulative organ TIACs from the whole body TIAC.
Note: the time-activity curves in these figures are not decay-corrected to time of injection.
The whole-body time-activity curves were fitted with bi-exponential equation and the two components were used for the distribution and elimination half-life.

Where [1] appears, read: bi-exponential fit of whole-body time-activity curves, excluding patient 42-030.

Regarding `O=C([O-])CC[C@H](NC(=O)N[C@@H](CCCCNC(=O)CCCCCCC(=O)NCCCC[C@@H](NC(=O)[C@@H](Cc1ccccc1)NC(=O)[C@@H](Cc1ccc(O)c(I)c1)NC(=O)CC[C@H](C(=O)[O-])N1CCN(CC(=O)[O-])CCN(CC(=O)[O-])CCN(CC(=O)[O-])CC1)C(=O)[O-])C(=O)[O-])C(=O)[O-].[177Lu+3].[H+].[H+].[H+].[H+].[H+]` [^177Lu-PSMA I&T, (3S,7S,26R,29R,32R,37R)-29-benzyl-32-(4-hydroxy-3-iodobenzyl)-5,13,20,28,31,34-hexaoxo-37-(4,7,10-tris(carboxymethyl)-1,4,7,10-tetraazacyclododecan-1-yl)-4,6,12,21,27,30,33-heptaazaheptatriacontane-1,3,7,26,37-pentacarboxylic acid; lutetium-177 (III)], the “whole body mean activity retention at 4 h” value (averaged across patients excluding 42-030) was 44%±13%. Moreover, under setting [1], the “whole-body distribution half-life (mean)” value is 2.16 ± 1.30 h and the “whole-body elimination half-life (mean)” value turned out to be 46.29 ± 23.83 h. Also, under “excluding 42-030”, the “whole body activity retention at 4 h, max” value is given as 78% and the “whole body activity retention at 4 h, min” value came out at 24%. The route of excretion result (visible accumulation in the urinary bladder) is “primarily excreted through the urine”.
